# Assays:
# Assay type in all cases: biochemical
# mu opioid receptor (MOR) = mu opioid receptor (MOR) (Homo sapiens, UniProt P35372); assay: GTP-γ-S Binding Assay (SPA-based), antagonist mode vs DAMGO; conditions: In vitro antagonism; agonist DAMGO 1 micromolar; Kb by Cheng-Prusoff equation
# Procedure: (§1) An SPA—based GTP-γ-S assay format was developed based on previous opioid (Emmerson et al., J. Pharm Exp Ther 278, 1121, 1996; Horng et al., Society for Neuroscience Abstracts, 434.6, 2000) and muscarinic (DeLapp et al., JPET 289, 946, 1999) assay formats. Membranes were re-suspended in 20 mM HEPES, 100 mM NaCl, 5 mM MgCl2, 1 mM DTT, and 1 mM EDTA. Fifty (50) […] of GTP-γ-[35S], compound, membrane suspension (20 microgram/well), and wheat germ agglutinin coated SPA beads (1 mg/well) were added to clear bottom 96 well assay plates. GDP ([…]) was added to the membrane solution prior to addition to the assay plates. Plates were sealed and incubated for four hours at room temperature then placed in a refrigerator overnight to allow the beads to settle. Signal stability at 4° C. was determined to be >60 hours. Plates were warmed to room temperature and counted in a Wallac Microbeta scintillation counter. For antagonist assays, specific agonists were added at the following concentrations: (MOR) DAMGO 1 micromolar, (DOR) DPDPE 30 nM, (KOR) U69593 300 nM. Kb's were determined by Cheng-Prusoff equation (see Cheng and Prusoff, Biochem. Pharmacol. 22, 3099, 1973).
# [1] = biological target: kappa opioid receptor (KOR) (Homo sapiens, UniProt P41145); assay: GTP-γ-S Binding Assay (SPA-based), antagonist mode vs U69593; conditions: In vitro antagonism; agonist U69593 300 nM; Kb by Cheng-Prusoff equation
# Chain of kappa opioid receptor (KOR) (P41145 whole entry): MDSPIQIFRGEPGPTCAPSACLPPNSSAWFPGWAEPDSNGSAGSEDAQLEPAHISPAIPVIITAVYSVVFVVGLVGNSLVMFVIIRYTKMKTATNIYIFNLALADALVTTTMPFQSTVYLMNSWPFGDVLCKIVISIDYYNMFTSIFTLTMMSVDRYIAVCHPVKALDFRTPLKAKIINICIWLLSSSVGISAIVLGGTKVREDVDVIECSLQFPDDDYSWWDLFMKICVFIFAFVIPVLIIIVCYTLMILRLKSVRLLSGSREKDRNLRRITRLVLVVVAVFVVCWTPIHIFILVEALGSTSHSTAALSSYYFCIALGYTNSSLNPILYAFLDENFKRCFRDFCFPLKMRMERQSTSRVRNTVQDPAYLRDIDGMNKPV
# Procedure: as §1
# [2] = biological target: delta opioid receptor (DOR) (Homo sapiens, UniProt P41143); assay: GTP-γ-S Binding Assay (SPA-based), antagonist mode vs DPDPE; conditions: In vitro antagonism; agonist DPDPE 30 nM; Kb by Cheng-Prusoff equation
# Chain of delta opioid receptor (DOR) (P41143 whole entry): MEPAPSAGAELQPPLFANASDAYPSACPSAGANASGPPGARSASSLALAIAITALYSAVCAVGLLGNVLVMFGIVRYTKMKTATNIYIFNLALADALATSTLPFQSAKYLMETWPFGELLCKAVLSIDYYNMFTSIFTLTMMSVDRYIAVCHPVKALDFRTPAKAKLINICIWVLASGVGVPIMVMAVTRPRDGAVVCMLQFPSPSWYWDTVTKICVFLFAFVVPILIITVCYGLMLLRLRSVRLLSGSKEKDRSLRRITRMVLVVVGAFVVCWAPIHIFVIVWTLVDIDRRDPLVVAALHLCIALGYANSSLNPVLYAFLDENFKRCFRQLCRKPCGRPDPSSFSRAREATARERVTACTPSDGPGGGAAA
# Procedure: as §1
# Chain of mu opioid receptor (MOR) (P35372 whole entry): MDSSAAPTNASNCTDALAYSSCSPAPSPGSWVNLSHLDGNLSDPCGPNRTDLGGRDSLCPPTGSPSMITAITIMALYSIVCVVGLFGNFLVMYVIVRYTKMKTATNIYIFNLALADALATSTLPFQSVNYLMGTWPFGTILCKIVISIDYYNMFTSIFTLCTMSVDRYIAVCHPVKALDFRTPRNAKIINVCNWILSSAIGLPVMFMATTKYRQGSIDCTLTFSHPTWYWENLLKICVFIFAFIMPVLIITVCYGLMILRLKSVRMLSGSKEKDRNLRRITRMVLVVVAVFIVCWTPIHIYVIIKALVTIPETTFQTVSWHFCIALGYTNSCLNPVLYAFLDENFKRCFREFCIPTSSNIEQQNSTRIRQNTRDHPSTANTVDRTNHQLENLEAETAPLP
Kb (mu opioid receptor (MOR)) [µM],Kb [1] [µM],Kb [2] [µM],SMILES
1.12,0.93,> 7.3,"NC(=O)c1ccc(OC2CCN(Cc3ccccc3)CC2)cc1 [Example 9, 4-(1-Benzyl-piperidin-4-yloxy)-benzamide]"
0.594,0.62,0.996,"CC(C)CCNC1CCC(Oc2ccc(C(N)=O)cn2)CC1 (racemic) [Example 2, ±6-[4-(3-Methyl-butylamino)-cyclohexyloxy]-nicotinamide]"
> 1.85,0.937,> 7.3,"NC(=O)c1ccc(OC2CCN(Cc3cc4ccccc4[nH]3)CC2)nc1 [Example 8, 6-[1-(1H-Indol-2-ylmethyl)-piperidin-4-yloxy]-nicotinamide]"
0.453,0.999,1.96,"NC(=O)c1ccc(OC2CCN(CCCc3ccccc3)CC2)cc1 [Example 10, 4-[1-(3-Phenyl-propyl)-piperidin-4-yloxy]-benzamide]"
1.78,1.05,> 7.3,"NC(=O)c1ccc(OC2CCN(CC3CC3)CC2)nc1 [Example 7, 6-(1-Cyclopropylmethyl-piperidin-4-yloxy)-nicotinamide]"
0.566,0.601,0.819,"NC(=O)c1ccc(OC2CCC(NCCC3CCOCC3)CC2)nc1 (racemic) [Example 1, ±6-{4-[2-(Tetrahydro-pyran-4-yl)-ethylamino]-cyclohexyloxy}-nicotinamide]"
> 1.8,0.43,> 7.3,"NC(=O)c1ccc(OC2CCN(Cc3ccccn3)CC2)nc1 [Example 6, 6-(1-Pyridin-2-ylmethyl-piperidin-4-yloxy)-nicotinamide]"

# Reference: patent US7196100B2, “Opioid receptor antagonists” (Eli Lilly and Company, priority 2004, dated 2007)
